Experimental data published in patent US20120219496A1, “GADOLINIUM-LINKED NANOCLUSTERS” (priority 2009, published 2012).

Test: R1 relaxivity determination (T1 relaxometry, slope of 1/T1 vs. Gd concentration)
Format: physicochemical
Details: 1.41 T (60 MHz), 40° C.
Method: Instrumentation. Dynamic light scattering (DLS) measurements were performed on a Zetasizer Nano from Malvern Instruments. The scattering angle was held constant at 90°. Microscopy measurements were performed on an Olympus IX 81 motorized inverted fluorescence microscope equipped with an Andor DU897 EMCCD, an X-Cite 120 excitation source (EXFO) and Sutter excitation and emission filter wheels. Image of FITC was acquired using the filter set HQ480/40, HQ535/50, Q505LP. Filter set was purchased from Chroma. Tl-relaxation times were determined using a Bruker mq60 MR relaxometer operating at 1.41 T (60 MHz). ICP-AES was performed by VHG Laboratories (Manchester, N.H.). Transmission electron microscopy (TEM) was performed with a JEOL 2010 electron microscope operated at 80 kV.
To assess the paramagnetic properties of the Gd-conjugated DNCs, the amount of Gd within the sample was determined by inductively coupled plasma atomic emission spectroscopy (ICP-AES). Tl-relaxation times were determined using a Bruker mq60 MR relaxometer operating at 1.41 T (60 MHz) and at 40° C. […] It is likely that only a marginal increase in R1 was observed, despite the larger size of DNCs, due to the “saturation” of ion relaxivity, which has also previously been reported for high generation dendrimers. As a point of comparison, Gd-DTPA was determined to have an R1 of 3.9 mM^−1 s^−1 per Gd.

With `O=C([O-])CN(CCN(CC(=O)[O-])CC(=O)O)CCN(CC(=O)[O-])CC(=O)O.[Gd+3]` [Gd-DTPA] the “R1 relaxivity per Gd” value was 3.9 mM⁻¹ s⁻¹.
